Measurements from PMC2661907, “The Proteasome Is a Molecular Target of Environmental Toxic Organotins” (Environmental Health Perspectives, 2008).

Target: T1, 20S proteasome (chymotrypsin-like activity, β5 subunit) (Oryctolagus cuniculus, UniProt G1T4Q9)
T1 construct: gene PSMB5; purified rabbit 20S proteasome; with other subunits of the 20S proteasome
T1 sequence (G1T4Q9 1-263): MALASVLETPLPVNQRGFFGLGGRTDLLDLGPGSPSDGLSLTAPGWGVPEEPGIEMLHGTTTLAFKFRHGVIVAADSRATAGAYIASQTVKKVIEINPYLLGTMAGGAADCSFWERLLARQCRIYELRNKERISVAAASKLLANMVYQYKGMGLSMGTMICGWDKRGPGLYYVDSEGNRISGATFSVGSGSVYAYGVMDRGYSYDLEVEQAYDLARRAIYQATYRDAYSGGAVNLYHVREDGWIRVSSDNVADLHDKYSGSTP
Assay: fluorogenic peptide CT-like activity assay on purified
Format: biochemical

CCC[CH2][Sn]([Cl])([CH2]CCC)[CH2]CCC [TBT, tributyltin chloride]
IC50: 15.6 µM
